How the values were obtained:
[1] = Solubility of the compound in water; type: physicochemical
MDA-MB-453 cells = experiment: MDA-MB-453 cell growth inhibition test (SRB assay); type: cell-based, human; conditions: growth inhibition at 2000 nM, 69.5 h
Protocol: MDA-MB-453 Cell Growth Inhibition Test (SRB Assay)
Cell strains: MDA-MB-453 (human breast cancer cell strains); SRB: 0.4% (w/v) working solution was formulated with 1% glacial acetic acid, reserved at 4° C.; antitumor compounds; DMSO.
(§1) II. Reagents and Consumable Materials
Culture medium: 90% L15+10% FBS; pancreatin (0.25% (w/v) solution was formulated with PBS, 0.53 mM of EDTA was added in the formulation); PBS; 96-well culture plate.
(§2) 1. A plate (10 cm) of cells in logarithmic growth phase that were normally cultured was collected;
(§3) 2. The culture solution was sucked out. The plate was washed with 5 mL of PBS once or twice;
(§4) 3. 1.5 mL of 0.25% pancreatin was added to the plate to infiltrate the cells;
(§5) 4. The pancreatin was sucked out. The culture plate was placed in an incubator. Digestion was carried out for about 3 min at 37° C.;
(§6) 5. 4 mL of complete culture solution was added to the culture plate to stop the digestion. The cells were carefully scoured with micropipette (1 ml) to give a uniform single cell suspension. The suspension was implanted into a 96-well cell culture plate by 7000 cells/100 μL per well. The culture plate was incubated overnight under 5% CO2 at 37° C. In day 2, 100 μL of culture solution comprising a compound was added in each well.
The plate was further incubated for 69.5 h under 5% CO2 at 37° C.;
(§7) 6. The culture solution was sucked out. 100 uL of TCA fixed cells which were diluted to 10% were added to each well. The plate was kept in a refrigerator for 1 h at 4° C.
(§8) 7. TCA stationary liquid was sucked out. Each well was washed with 150 μL of ddH2O five times;
(§9) 8. After the stationary liquid was cleansed, the plate was dried in the air at the room temperature;
(§10) 9. 60 μL of SRB staining solution was added in each well. The well was stained for 15 min at the room temperature;
(§11) 10. The SRB staining solution was sucked out. Each well was washed with 150 μL of 1% glacial acetic acid five times;
(§12) 11. After the SRB staining solution was cleansed, the plate was dried in the air at the room temperature;
(§13) 12. 100 μL of 10 mM Tris was added in each well. The plate was vibrated to dissolve out SRB;
(§14) 13. OD values were determined at 570 nM.
(§15) IV. Results and Treatments
(§16) 1. Calculation of Relative Inhibition Ratio The inhibition ratio of a compound on cell growth=(PC−n)/(PC−NC)×100%
(§17) PC: OD values of cells after normal growth in control wells without a compound;
(§18) n: OD values of cells after growth in test wells with a compound;
(§19) NC: Background OD values of blank wells without a compound and cells.

SK-OV-3 cells = experiment: SK-OV-3 cell growth inhibition test (MTT assay); type: cell-based, human; conditions: growth inhibition at 667 nM, 69 h
Protocol: SK-OV-3 Cell Growth Inhibition Test (MTT Assay)
Cell strains: SK-OV-3 (human ovarian cancer cell strains); MTT; antitumor compounds; DMSO.
as §1
Culture medium: 90% McCoy's 5A+10% FBS; Pancreatin (0.25% (w/v) solution was formulated with PBS, 0.53 mM of EDTA was added in the formulation); PBS; 96-well culture plate.
as §2, §3
(§20) 3. PBS was sucked out. 1.5 mL of 0.25% pancreatin was added to infiltrate the cells;
4. The pancreatin was sucked out. The culture plate was placed in an incubator. Digestion was carried out for about 5 min at 37° C.;
(§21) 5. 4.5 mL of complete culture solution was added to the culture plate to stop the digestion. The cells were carefully scoured with micropipette (1 ml) to give a uniform cell suspension. The suspension was implanted into a 96-well cell culture disc by 4000 cells/100 μL per well. The culture plate was incubated overnight under 5% CO2 at 37° C. In day 2, 100 μL of culture solution comprising a compound was added in each well. The plate was further incubated for 69 h under 5% CO2 at 37° C.;
(§22) 6. The culture solution was sucked out;
(§23) 7. 100 μL of serum-free culture solution containing 0.5 mg/mL MTT was added in each well. The plate was incubated for 3 h;
(§24) 8. The culture solution was carefully sucked out;
9. 100 μL of DMSO was added in each well and vibrated to dissolve;
(§25) 10. OD values were determined at 490 nM.
as §15, §16, §17, §18, §19

BxPc-3 cells = experiment: BxPc-3 cell growth inhibition test (MTT assay); type: cell-based, human; conditions: growth inhibition at 2000 nM, 70 h
Protocol: BxPc-3 Cell Growth Inhibition Test (MTT Assay)
Cell strains: BxPC-3 (human pancreatic cancer cell strains); MTT; antitumor compounds; DMSO.
as §1
(§26) Culture medium: 90% RPMI-1640+10% FBS; Pancreatin (0.25% (w/v) solution was formulated with PBS, 0.53 mM of EDTA was added in the formulation); PBS; 96-well culture plate.
as §2, §3, §20
4. The culture plate was placed in an incubator. Digestion was carried out for about 8 min at 37° C.;
as §21, with “5000” for “4000”, “70” for “69”
as §22, §23, §24
(§27) 9. 100 μL of DMSO was added into each well and vibrated to dissolve;
as §25, §15, §16, §17, §18, §19

22Rv1 cells = experiment: 22Rv1 cell growth inhibition test (SRB assay); type: cell-based, human; conditions: growth inhibition at 222 nM, 73 h
Protocol: 22Rv1 Cell Growth Inhibition Test (SRB Assay)
Cell strains: 22Rv1 (human prostate cancer cell strains); SRB: 0.4% (w/v) working solution was formulated with 1% glacial acetic acid, reserved at 4° C.; antitumor compounds; DMSO.
as §1, §26, §2, §3, §4, §5
as §6, with “each well. The plate was further incubated for 73 h under 5% CO2 at 37° C.;” for “each well.”
as §7, §8, §9, §10, §11, §12, §13, §14, §15, §16, §17, §18, §19

NCI-H446 cells = experiment: NCI-H446 cell growth inhibition test (MTT assay); type: cell-based, human; conditions: growth inhibition at 222 nM, 70 h
Protocol: NCI-H446 Cell Growth Inhibition Test (MTT Assay)
Cell strains: NCI-H446 (human small cell lung cancer cell strains); MTT; antitumor compounds; DMSO.
as §1, §26, §2, §3, §20
4. The culture plate was placed in an incubator. Digestion was carried out for about 3 min at 37° C.;
as §21, with “3” for “4.5”, “70” for “69”
as §22, §23, §24, §27, §25, §15, §16, §17, §18, §19

Row | solubility of the compound in water [1] | Structure (SMILES) | Inhibition Ratio (%) (MDA-MB-453 cells) | Inhibition Ratio (%) (SK-OV-3 cells) | Inhibition Ratio (%) (BxPc-3 cells) | Inhibition Ratio (%) (22Rv1 cells) | Inhibition Ratio (%) (NCI-H446 cells)
1 | more than 6 mg/ml | CC(=O)O.COc1cccc2c1C(=O)c1c(O)c3c(c(O)c1C2=O)CC(O)(C(=O)COC(=O)CCC(=O)NCc1ccncc1)CC3O[C@H]1C[C@H](n2cccc2)[C@H](O)[C@H](C)O1 (stereo partly shown) [Example 82] | – | – | – | – | –
2 | more than 3 mg/ml | CC(=O)O.COc1cccc2c1C(=O)c1c(O)c3c(c(O)c1C2=O)CC(O)(C(=O)COC(=O)CCC(=O)NCCc1ccncc1)CC3O[C@H]1C[C@H](n2cccc2)[C@H](O)[C@H](C)O1 (stereo partly shown) [Example 86] | – | – | – | – | –
3 | more than 1 mg/ml | CC(=O)O.COc1cccc2c1C(=O)c1c(O)c3c(c(O)c1C2=O)CC(O)(C(=O)COC(=O)CCC(=O)NCc1cccnc1)CC3O[C@H]1C[C@H](n2cccc2)[C@H](O)[C@H](C)O1 (stereo partly shown) [Example 83] | – | – | – | – | –
4 | more than 5 mg/ml | CC(=O)O.COc1cccc2c1C(=O)c1c(O)c3c(c(O)c1C2=O)CC(O)(C(=O)COC(=O)CCC(=O)NN1CCN(C)CC1)CC3O[C@H]1C[C@H](n2cccc2)[C@H](O)[C@H](C)O1 (stereo partly shown) [Example 79] | – | – | – | – | –
5 | more than 11 mg/ml | CC(=O)O.COc1cccc2c1C(=O)c1c(O)c3c(c(O)c1C2=O)CC(O)(C(=O)COC(=O)CCC(=O)NCCc1cccnc1)CC3O[C@H]1C[C@H](n2cccc2)[C@H](O)[C@H](C)O1 (stereo partly shown) [Example 85] | – | – | – | – | –
6 | more than 22 mg/ml | CC(=O)O.COc1cccc2c1C(=O)c1c(O)c3c(c(O)c1C2=O)CC(O)(C(=O)COC(=O)CCC(=O)NCCCN1CCOCC1)CC3O[C@H]1C[C@H](n2cccc2)[C@H](O)[C@H](C)O1 (stereo partly drawn) [Example 78, 10-((3′-(pyrrol-1-yl)-2′,3′,6′-trideoxy-alphal-l-lyxo-hexylpyranyl)oxy)-7,8,9,10-tetrahydro-6,8,11-trihydroxy-13-oxo-14-(4-((3-(morpholin-1-yl)propyl)amino)-4-oxo-butyrato)-1-methoxy-5,12-naphthalenedione acetate] | – | – | – | – | –
7 | – | COc1cccc2c1C(=O)c1c(O)c3c(c(O)c1C2=O)CC(O)(C(=O)COC(=O)CCC(=O)NCCCN1CCOCC1)CC3OC1CC(n2cccc2)C(O)C(C)O1 (stereo not shown) [Example 12] | 73.7 | 48.8 | 74.9 | 53.3 | 54.6
8 | – | COc1cccc2c1C(=O)c1c(O)c3c(c(O)c1C2=O)CC(O)(C(=O)COC(=O)CCC(=O)NS(C)(=O)=O)CC3OC1CC(n2cccc2)C(O)C(C)O1 (stereo not shown) [Example 94] | 75.8 | 71.4 | 84.9 | 60.7 | 48.4
9 | – | COc1cccc2c1C(=O)c1c(O)c3c(c(O)c1C2=O)CC(O)(C(=O)COC(=O)CCC(=O)NCCOCCOCCOCCO)CC3O[C@H]1C[C@H](n2cccc2)[C@H](O)[C@H](C)O1 (stereo partly drawn) [Example 1, 10-((3′-(pyrrol-1-yl)-2′,3′,6′-trideoxy-alphal-l-lyxo-hexylpyranyl)oxy)-7,8,9,10-tetrahydro-6,8,11-trihydroxy-13-oxo-14-(4-(2-(2-(2-(2-hydroxyethoxy)ethoxy)ethoxy)ethylamino)-4-oxo-butyrato)-1-methoxy-5,12-naphthalenedione] | 77.7 | 57.3 | 82.5 | 52.2 | 43.2
10 | – | CCN1CCN(C(=O)CCC(=O)OCC(=O)C2(O)Cc3c(O)c4c(c(O)c3C(OC3CC(n5cccc5)C(O)C(C)O3)C2)C(=O)c2c(OC)cccc2C4=O)CC1 (stereo not shown) [Example 40] | 73 | 47.9 | 76.5 | 50.5 | 49
11 | – | COc1cccc2c1C(=O)c1c(O)c3c(c(O)c1C2=O)CC(O)(C(=O)COC(=O)CCC(=O)NCCO)CC3OC1CC(n2cccc2)C(O)C(C)O1 (stereo not shown) [Example 60] | 76.3 | 58.9 | 83.4 | 52.9 | 52.5
12 | – | COc1cccc2c1C(=O)c1c(O)c3c(c(O)c1C2=O)CC(O)(C(=O)COC(=O)CCC(=O)N(CCO)CCO)CC3OC1CC(n2cccc2)C(O)C(C)O1 (stereo not shown) [Example 64] | 73.5 | 65.9 | 83.7 | 54.8 | 51.6
13 | – | COc1cccc2c1C(=O)c1c(O)c3c(c(O)c1C2=O)CC(O)(C(=O)COC(=O)CCC(=O)NCCc1ccc(S(N)(=O)=O)cc1)CC3OC1CC(n2cccc2)C(O)C(C)O1 (stereo not shown) [Example 38] | 75.8 | 67.6 | 82.4 | 56.3 | 62.6
14 | – | COc1cccc2c1C(=O)c1c(O)c3c(c(O)c1C2=O)CC(O)(C(=O)COC(=O)CCC(=O)NCc1ccccn1)CC3OC1CC(n2cccc2)C(O)C(C)O1 (stereo not shown) [Example 30] | 79.9 | 59.9 | 85.2 | 62.3 | 61
